Data reported in patent publication US20230373962A1, “SUPRAMOLECULAR MOLECULES FOR THE TREATMENT OF CANCER” (The University of Birmingham, priority 2020, published 2023).

Assay: Solubility
Type: physicochemical
Details: CB[10] alone

solubility: insoluble
SMILES: O=C1N2CN3C(=O)N4CN5C(=O)N6CN7C(=O)N8CN9C(=O)N%10CN%11C(=O)N%12CN%13C(=O)N%14CN%15C(=O)N%16CN%17C(=O)N%18CN%19C(=O)N%20CN1C1C2N2CN%21C(=O)N(CN%22C(=O)N(CN%23C(=O)N(CN%24C(=O)N(CN%25C(=O)N(CN%26C(=O)N(CN%27C(=O)N(CN%28C(=O)N(CN%29C(=O)N(CN1C2=O)C%20C%19%29)C%18C%17%28)C%16C%15%27)C%14C%13%26)C%12C%11%25)C%10C9%24)C8C7%23)C6C5%22)C4C3%21 (stereo not shown) [CB[10], cucurbit[10]uril]
